Laboratory results as given in patent US20170027171A1, “METHOD FOR CONTROLLING PLANT DISEASES” (Nihon Nohyaku Co., Ltd., priority 2014, published 2017).

Tests used:
Format in all cases: in vivo
[1] = test system: Septoria tritici, KUK-1-21 Strain; assay: Test for wheat leaf blotch, potted wheat, foliar spray before inoculation
Text: Test for Wheat Leaf Blotch (Septoria tritici, KUK-1-21 Strain):
(§1) The formulation produced in Formulation Example 1 was adjusted to predetermined concentrations and these prepared agrochemical liquids were applied to wheat plants in pots at a rate equivalent to 1000 L/ha with a spray gun. After the agrochemical treatment, the wheat pots were kept outdoors for 1 day or 7 days, and then spray-inoculated with wheat leaf blotch pathogen Septoria tritici (1×10^6 spores/mL). After that, the wheat pots were kept in a greenhouse, in which the conditions favored the development of the disease. Three weeks after the inoculation, the lesion area index (0-10) was determined for the evaluation of the control effect.

[2] = test system: Septoria nodorum; assay: Test for wheat glume blotch, potted wheat, foliar spray before inoculation; conditions: wheat in pots, 1000 L/ha spray, number of lesions per leaf ten days after inoculation
Text: Test for Wheat Glume Blotch (Septoria nodorum)
as §1, with “nodorum (2.4×10^6” for “tritici (1×10^6”, “disease.” for “disease. Three weeks after the inoculation, the lesion area index (0-10) was determined for the evaluation of the control effect.”
Ten days after the inoculation, the number of lesions per leaf was counted for the evaluation of the control effect.

[3] = test system: Pseudocercosporella herpotrichoides; assay: Test for wheat eyespot, potted wheat, foliar spray before inoculation; conditions: wheat in pots, percentage of stems with lesions three weeks after inoculation
Text: Test for Wheat Eyespot (Pseudocercosporella herpotrichoides)
The formulation produced in Formulation Example 1 was adjusted to predetermined concentrations and these prepared agrochemical liquids were applied to wheat plants in pots at a predetermined rate with a spray gun. After air-drying, the wheat pots were spray-inoculated with a spore suspension of wheat eyespot pathogen Pseudocercosporella herpotrichoides (4.2×10^6 spores/mL). After that, the wheat pots were kept in a greenhouse, in which the conditions favored the development of the disease. Three weeks after the inoculation, the percentage of stems with lesions was determined for the evaluation of the control effect.

O=C1C(Cl)=C(Cl)C(=O)N1c1ccc(F)cc1 [Fluoroimide]
Control rate, Inoculated at 1 day post-treatment ([1]; 62.5 ppm, wheat in pots, 1000 L/ha spray, lesion area index three weeks after inoculation): 62 | Control rate, Inoculated at 1 day post-treatment ([1]; 125 ppm, wheat in pots, 1000 L/ha spray, lesion area index three weeks after inoculation): 84 | Control rate, Inoculated at 1 day post-treatment ([1]; 250 ppm, wheat in pots, 1000 L/ha spray, lesion area index three weeks after inoculation): 95 | Control rate, Inoculated at 7 days post-treatment ([1]; 500 ppm, wheat in pots, 1000 L/ha spray, lesion area index three weeks after inoculation): 65 | Effect for controlling leaf blotch (in words) ([1]; summary of the results): highly effective | Control rate, Inoculated at 1 day post-treatment ([2]; 62.5 ppm): 63 | Control rate, Inoculated at 1 day post-treatment ([2]; 125 ppm): 90 | Control rate, Inoculated at 1 day post-treatment ([2]; 250 ppm): 94 | Control rate, Inoculated at 1 day post-treatment ([2]; 500 ppm): 96 | Control rate, Inoculated at 7 days post-treatment ([2]; 500 ppm): 85 | Control rate, Inoculated after treatment and air-drying ([3]; 125 ppm): 56 | Control rate, Inoculated after treatment and air-drying ([3]; 250 ppm): 80 | Control rate, Inoculated after treatment and air-drying ([3]; 500 ppm): 95
